What follows are compounds tested against T1, human PDE10A (Homo sapiens, UniProt Q9Y233) (assay: human PDE10A full length Scintillation Proximity Assay (SPA)). Conditions: 50 nM cGMP and 50 nM [3H]-cGMP, 20 minutes at room temperature; read-out: PDE10A inhibition IC50.
T1 construct: The human PDE10A full length assay; purchased Enzo Life Science, Lausen, Switzerland SE-534
T1 sequence (Q9Y233 1-779 isoform Q9Y233-1): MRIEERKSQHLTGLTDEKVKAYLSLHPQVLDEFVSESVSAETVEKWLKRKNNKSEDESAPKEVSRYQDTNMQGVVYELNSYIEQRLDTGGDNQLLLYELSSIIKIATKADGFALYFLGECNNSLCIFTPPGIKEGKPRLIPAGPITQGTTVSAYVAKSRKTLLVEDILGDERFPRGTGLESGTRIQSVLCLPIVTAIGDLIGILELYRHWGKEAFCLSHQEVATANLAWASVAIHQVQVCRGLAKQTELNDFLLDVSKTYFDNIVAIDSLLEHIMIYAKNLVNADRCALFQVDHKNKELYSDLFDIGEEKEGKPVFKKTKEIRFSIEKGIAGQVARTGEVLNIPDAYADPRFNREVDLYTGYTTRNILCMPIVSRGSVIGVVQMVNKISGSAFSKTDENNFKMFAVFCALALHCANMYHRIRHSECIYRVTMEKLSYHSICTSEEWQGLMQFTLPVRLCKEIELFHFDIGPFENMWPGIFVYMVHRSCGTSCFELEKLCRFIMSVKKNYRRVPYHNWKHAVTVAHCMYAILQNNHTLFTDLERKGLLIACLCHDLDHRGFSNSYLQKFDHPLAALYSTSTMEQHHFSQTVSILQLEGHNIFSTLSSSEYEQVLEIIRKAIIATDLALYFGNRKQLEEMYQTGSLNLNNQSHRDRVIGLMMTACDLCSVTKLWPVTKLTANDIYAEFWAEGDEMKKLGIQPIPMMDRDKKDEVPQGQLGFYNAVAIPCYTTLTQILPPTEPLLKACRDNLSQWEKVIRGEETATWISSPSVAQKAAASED
Type: biochemical
In short: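 Full-length enzyme at 3.75 ng/well in 20 mM HEPES pH 7.5, 10 mM MgCl2, 0.05 mg/ml BSA, with 50 nM cGMP plus 50 nM [3H]-cGMP substrate, 20 min at room temperature. Stopped with YSi-SPA beads in zinc sulphate and counted by scintillation. IC50 from inhibitor concentration series; no-enzyme wells define background.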
In the case of CN(CCOCCF)C(=O)c1cnn(C)c1C(=O)Nc1ccn2cc(-c3ccccc3)nc2n1 [Example 106, 2-Methyl-2H-pyrazole-3,4-dicarboxylic acid 4-{[2-(2-fluoro-ethoxy)-ethyl]-methyl-amide}3-[(2-phenyl-imidazo[1,2-a]pyrimidin-7-yl)-amide]], the IC50 is reported as 43.3 nM.
Compound COCCN(C)C(=O)c1cnn(C)c1C(=O)Nc1ccn2cc(-c3cccc(F)c3)nc2n1 [Example 107, 2-Methyl-2H-pyrazole-3,4-dicarboxylic acid 3-{[2-(3-fluoro-phenyl)-imidazo[1,2-a]pyrimidin-7-yl]-amide}4-[(2-methoxy-ethyl)-methyl-amide]] has an IC50 of 51.9 nM.
Compound CN(CCF)C(=O)c1cnn(C)c1C(=O)Nc1ccn2cc(-c3cccc(OCF)c3)nc2n1 [Example 108, 2-Methyl-2H-pyrazole-3,4-dicarboxylic acid 4-[(2-fluoro-ethyl)-methyl-amide]3-{[2-(3-fluoromethoxy-phenyl)-imidazo[1,2-a]pyrimidin-7-yl]-amide}] has an IC50 of 81.7 nM.
For CN(CCOCCF)C(=O)c1cnn(C)c1C(=O)Nc1ccn2cc(-c3cccc(OCCF)c3)nc2n1 [Example 109, 2-Methyl-2H-pyrazole-3,4-dicarboxylic acid 4-{[2-(2-fluoro-ethoxy)-ethyl]-methyl-amide}3-({2-[3-(2-fluoro-ethoxy)-phenyl]-imidazo[1,2-a]pyrimidin-7-yl}-amide)], the IC50 was 89 nM.
COc1cccc(-c2cn3ccc(NC(=O)c4c(C(=O)N(C)CCOCCF)cnn4C)nc3n2)c1 [Example 110] gave an IC50 of 222 nM.
COc1cccc(-c2cn3ccc(NC(=O)c4c(C(=O)N(C)CCF)cnn4C)nc3n2)c1 [Example 111, 2-Methyl-2H-pyrazole-3,4-dicarboxylic acid 4-[(2-fluoro-ethyl)-methyl-amide]3-{[2-(3-methoxy-phenyl)-imidazo[1,2-a]pyrimidin-7-yl]amide}] gave an IC50 of 364 nM.
For Cn1ncc(C(=O)NCc2cocn2)c1C(=O)Nc1ccn2cc(-c3ccccc3)nc2n1 [Example 112, 1-methyl-N4-(oxazol-4-ylmethyl)-N5-(2-phenylimidazo[1,2-a]pyrimidin-7-yl)-1H-pyrazole-4,5-dicarboxamide], the IC50 was 1.3 nM.
Work on Cn1ncc(C(=O)NCc2ccn[nH]2)c1C(=O)Nc1ccn2cc(-c3ccccc3)nc2n1 [Example 113, N4-((1H-pyrazol-5-yl)methyl)-1-methyl-N5-(2-phenylimidazo[1,2-a]pyrimidin-7-yl)-1H-pyrazole-4,5-dicarboxamide] yielded an IC50 of 2.6 nM.
Cn1ncc(C(=O)N2CC=CC2)c1C(=O)Nc1ccn2cc(-c3ccccc3)nc2n1 [Example 114, 4-(2,5-dihydro-1H-pyrrole-1-carbonyl)-1-methyl-N-(2-phenylimidazo[1,2-a]pyrimidin-7-yl)-1H-pyrazole-5-carboxamide] was tested, and the IC50 was 2.8 nM.
Work on Cn1ncc(C(=O)N2CC(F)C2)c1C(=O)Nc1ccn2cc(-c3ccccc3)nc2n1 [Example 115, 4-(3-fluoroazetidine-1-carbonyl)-1-methyl-N-(2-phenylimidazo[1,2-a]pyrimidin-7-yl)-1H-pyrazole-5-carboxamide] yielded an IC50 of 5.1 nM.
CC1CCCN1C(=O)c1cnn(C)c1C(=O)Nc1ccn2cc(-c3ccccc3)nc2n1 (stereo not drawn) [Example 116, 1-methyl-4-(2-methylpyrrolidine-1-carbonyl)-N-(2-phenylimidazo[1,2-a]pyrimidin-7-yl)-1H-pyrazole-5-carboxamide] gave an IC50 of 5.1 nM.
Cn1ncc(C(=O)N2CCC2)c1C(=O)Nc1ccn2cc(-c3cccc(Br)c3)nc2n1 [Example 117, 4-(azetidine-1-carbonyl)-N-(2-(3-bromophenyl)imidazo[1,2-a]pyrimidin-7-yl)-1-methyl-1H-pyrazole-5-carboxamide] was tested, and the IC50 was 6.2 nM.
Compound Cn1ncc(C(=O)NCc2ccccn2)c1C(=O)Nc1ccn2cc(-c3ccccc3)nc2n1 [Example 118, 1-methyl-N5-(2-phenylimidazo[1,2-a]pyrimidin-7-yl)-N4-(pyridin-2-ylmethyl)-1H-pyrazole-4,5-dicarboxamide] has an IC50 of 11.9 nM.
CN(CC#N)C(=O)c1cnn(C)c1C(=O)Nc1ccn2cc(-c3ccccc3)nc2n1 [Example 119, N4-(cyanomethyl)-N4,1-dimethyl-N5-(2-phenylimidazo[1,2-a]pyrimidin-7-yl)-1H-pyrazole-4,5-dicarboxamide] showed an IC50 of 13.3 nM.
For C=CCn1ncc(C(=O)N2CCC2)c1C(=O)Nc1ccn2cc(-c3ccccc3)nc2n1 [Example 120, 1-allyl-4-(azetidine-1-carbonyl)-N-(2-phenylimidazo[1,2-a]pyrimidin-7-yl)-1H-pyrazole-5-carboxamide], the IC50 was 13.7 nM.
Work on Cc1cc(CNC(=O)c2cnn(C)c2C(=O)Nc2ccn3cc(-c4ccccc4)nc3n2)n[nH]1 [Example 121, 1-methyl-N-4-((5-methyl-1H-pyrazol-3-yl)methyl)-N5-(2-phenylimidazo[1,2-a]pyrimidin-7-yl)-1H-pyrazole-4,5-dicarboxamide] yielded an IC50 of 16.7 nM.
In the case of Cn1ncc(C(=O)NCc2ncco2)c1C(=O)Nc1ccn2cc(-c3ccccc3)nc2n1 [Example 122, 1-methyl-N4-(oxazol-2-ylmethyl)-N5-(2-phenylimidazo[1,2-a]pyrimidin-7-yl)-1H-pyrazole-4,5-dicarboxamide], the IC50 is reported as 16.9 nM.
Work on Cn1ncc(C(=O)NCCF)c1C(=O)Nc1ccn2cc(-c3ccccc3)nc2n1 [Example 123, N4-(2-fluoroethyl)-1-methyl-N5-(2-phenylimidazo[1,2-a]pyrimidin-7-yl)-1H-pyrazole-4,5-dicarboxamide] yielded an IC50 of 17.3 nM.
Cc1cnc(CNC(=O)c2cnn(C)c2C(=O)Nc2ccn3cc(-c4ccccc4)nc3n2)s1 [Example 124, 1-methyl-N4-((5-methylthiazol-2-yl)methyl)-N5-(2-phenylimidazo[1,2-a]pyrimidin-7-yl)-1H-pyrazole-4,5-dicarboxamide] showed an IC50 of 17.7 nM.
Compound Cn1ncc(C(=O)NCC#N)c1C(=O)Nc1ccn2cc(-c3ccccc3)nc2n1 [Example 125, N4-(cyanomethyl)-1-methyl-N5-(2-phenylimidazo[1,2-a]pyrimidin-7-yl)-1H-pyrazole-4,5-dicarboxamide] has an IC50 of 18.7 nM.
In the case of Cn1ncc(C(=O)NCCC(F)(F)F)c1C(=O)Nc1ccn2cc(-c3ccccc3)nc2n1 [Example 126, 1-methyl-N5-(2-phenylimidazo[1,2-a]pyrimidin-7-yl)-N4-(3,3,3-trifluoropropyl)-1H-pyrazole-4,5-dicarboxamide], the IC50 is reported as 24.7 nM.
Cc1cc(CNC(=O)c2cnn(C)c2C(=O)Nc2ccn3cc(-c4ccccc4)nc3n2)on1 [Example 127, 1-methyl-N4-((3-methylisoxazol-5-yl)methyl)-N5-(2-phenylimidazo[1,2-a]pyrimidin-7-yl)-1H-pyrazole-4,5-dicarboxamide] gave an IC50 of 25.9 nM.
Work on Cn1ncc(C(=O)N2CCC2)c1C(=O)Nc1ccn2cc(-c3cccc(-c4ccccc4)c3)nc2n1 [Example 128, 4-(azetidine-1-carbonyl)-N-(2-(biphenyl-3-yl)imidazo[1,2-a]pyrimidin-7-yl)-1-methyl-1H-pyrazole-5-carboxamide] yielded an IC50 of 26 nM.
With Cn1ncc(C(=O)NCC(F)F)c1C(=O)Nc1ccn2cc(-c3ccccc3)nc2n1 [Example 129, N4-(2,2-difluoroethyl)-1-methyl-N5-(2-phenylimidazo[1,2-a]pyrimidin-7-yl)-1H-pyrazole-4,5-dicarboxamide] the IC50 was 33.2 nM.
Cn1ncc(C(=O)NCC(F)(F)F)c1C(=O)Nc1ccn2cc(-c3ccccc3)nc2n1 [Example 130, 1-methyl-N5-(2-phenylimidazo[1,2-a]pyrimidin-7-yl)-N4-(2,2,2-trifluoroethyl)-1H-pyrazole-4,5-dicarboxamide] gave an IC50 of 34.9 nM.
In the case of Cn1ncc(C(=O)NCc2ccno2)c1C(=O)Nc1ccn2cc(-c3ccccc3)nc2n1 [Example 131, N4-(isoxazol-5-ylmethyl)-1-methyl-N5-(2-phenylimidazo[1,2-a]pyrimidin-7-yl)-1H-pyrazole-4,5-dicarboxamide], the IC50 is reported as 35.1 nM.
For Cn1ncc(C(=O)N2CC3(COC3)C2)c1C(=O)Nc1ccn2cc(-c3ccccc3)nc2n1 [Example 132, 1-methyl-N-(2-phenylimidazo[1,2-a]pyrimidin-7-yl)-4-(2-oxa-6-azaspiro[3.3]heptane-6-carbonyl)-1H-pyrazole-5-carboxamide], the IC50 was 48.6 nM.
Work on Cn1ncc(C(=O)Nc2ccccc2)c1C(=O)Nc1ccn2cc(-c3ccccc3)nc2n1 [Example 133, 1-methyl-N4-phenyl-N5-(2-phenylimidazo[1,2-a]pyrimidin-7-yl)-1H-pyrazole-4,5-dicarboxamide] yielded an IC50 of 52.2 nM.
In the case of Cn1ncc(C(=O)NC2(C)COC2)c1C(=O)Nc1ccn2cc(-c3ccccc3)nc2n1 [Example 134, 1-methyl-N4-(3-methyloxetan-3-yl)-N5-(2-phenylimidazo[1,2-a]pyrimidin-7-yl)-1H-pyrazole-4,5-dicarboxamide], the IC50 is reported as 57.6 nM.
CN(Cc1ccccn1)C(=O)c1cnn(C)c1C(=O)Nc1ccn2cc(-c3ccccc3)nc2n1 [Example 135, N4,1-dimethyl-N5-(2-phenylimidazo[1,2-a]pyrimidin-7-yl)-N4-(pyridin-2-ylmethyl)-1H-pyrazole-4,5-dicarboxamide] was tested, and the IC50 was 64.1 nM.
Work on CN(Cc1ccc(Br)cn1)C(=O)c1cnn(C)c1C(=O)Nc1ccn2cc(-c3ccccc3)nc2n1 [Example 136, N4-((5-bromopyridin-2-yl)methyl)-N4,1-dimethyl-N5-(2-phenylimidazo[1,2-a]pyrimidin-7-yl)-1H-pyrazole-4,5-dicarboxamide] yielded an IC50 of 99.7 nM.
For Cn1ncc(C(=O)N2CCOCC2c2cccnc2)c1C(=O)Nc1ccn2cc(-c3ccccc3)nc2n1 (stereo not drawn) [Example 137, 1-methyl-N-(2-phenylimidazo[1,2-a]pyrimidin-7-yl)-4-(3-(pyridin-3-yl)morpholine-4-carbonyl)-1H-pyrazole-5-carboxamide], the IC50 was 117 nM.
Cn1ncc(C(=O)NC(C)(C)C)c1C(=O)Nc1ccn2cc(-c3ccccc3)nc2n1 [Example 138, N4-tert-butyl-1-methyl-N5-(2-phenylimidazo[1,2-a]pyrimidin-7-yl)-1H-pyrazole-4,5-dicarboxamide] showed an IC50 of 130 nM.

Reference: patent US8410117B2, “Imidazopyrimidine derivatives” (Hoffmann-La Roche Inc., priority 2010, dated 2013)
